{"source": "patent US5464754A", "about": "“Assay and substrate for arachidonoyl-specific phospholipase A2” (The Regents of the University of California, priority 1993, dated 1995)", "molecules": {"B1": {"name": "cPLA: 85 kDa arachidonic acid specific enzyme; purified, recombinant human (protein, UniProt P47712 1-749, looked up)", "Cytosolic phospholipase A2": "MSFIDPYQHIIVEHQYSHKFTVVVLRATKVTKGAFGDMLDTPDPYVELFISTTPDSRKRTRHFNNDINPVWNETFEFILDPNQENVLEITLMDANYVMDETLGTATFTVSSMKVGEKKEVPFIFNQVTEMVLEMSLEVCSCPDLRFSMALCDQEKTFRQQRKEHIRESMKKLLGPKNSEGLHSARDVPVVAILGSGGGFRAMVGFSGVMKALYESGILDCATYVAGLSGSTWYMSTLYSHPDFPEKGPEEINEELMKNVSHNPLLLLTPQKVKRYVESLWKKKSSGQPVTFTDIFGMLIGETLIHNRMNTTLSSLKEKVNTAQCPLPLFTCLHVKPDVSELMFADWVEFSPYEIGMAKYGTFMAPDLFGSKFFMGTVVKKYEENPLHFLMGVWGSAFSILFNRVLGVSGSQSRGSTMEEELENITTKHIVSNDSSDSDDESHEPKGTENEDAGSDYQSDNQASWIHRMIMALVSDSALFNTREGRAGKVHNFMLGLNLNTSYPLSPLSDFATQDSFDDDELDAAVADPDEFERIYEPLDVKSKKIHVVDSGLTFNLPYPLILRPQRGVDLIISFDFSARPSDSSPPFKELLLAEKWAKMNKLPFPKIDPYVFDREGLKECYVFKPKNPDMEKDCPTIIHFVLANINFRKYRAPGVPRETEEEKEIADFDIFDDPESPFSTFNFQYPNQAFKRLHDLMHFNTLNNIDVIKEAMVESIEYRRQNPSRCSVSLSNVEARRFFNKEFLSKPKA"}}, "key": {"cPLA enzyme [1]": {"tested_on": "cPLA enzyme", "experiment": "Effect of solvent and diluent components on cPLA enzyme activity", "format": "biochemical, human", "protocol": "The substrate diluent generally comprises any suitable assay buffer system, such as HEPES, Tris-HCL, Tris-maleate, glycine, or the like. […] A suitable diluent comprises about 25% -50% glycerol, and preferably about 30% glycerol.\nThe thiosubstrate diluent also comprises an amount of detergent sufficient to solubilize! the substrate. One suitable detergent is Triton-X 100. Triton-X 100 is preferably used at concentrations of about 1-5 mM with about 1-3 mM thiosubstrate.\nThe Ca^2+ can be provided by the addition of CaCl2 to the diluent, preferably at concentrations greater than 1 mM, and more preferably at a concentration of about 10 mM.\nThe effectiveness of a phospholipase A2 enzyme inhibitor can be measured by adding the inhibitor to the substrate solution prior to the incubation with enzyme. […] Therefore, approximately 10 μl inhibitor dissolved in DMSO can be added to 200 μl substrate solution prior to the addition of enzyme to test the effectiveness of the inhibitor against cPLA. […] Thus, appropriate blanks should be run under each condition tested."}, "cPLA enzyme [2]": {"tested_on": "cPLA enzyme", "experiment": "Sensitivity of cPLA enzyme to thiol-sensitive reagents", "format": "biochemical, human", "conditions": "in the presence of DTNB (Ellman's reagent)", "protocol": "The sPLA enzymes are very stable, containing 7 disulfide bonds. […] In contrast, cPLA is an intracellular enzyme and assays and purifications are often run in the presence of reduced thiols, such as 2-mercaptoethanol or dithiothreitol (Kramer et al., supra; Clark, J. D., et al., supra).\nAfter an incubation period, the enzyme/substrate reaction is quenched by the addition of a quenching reagent and a thiol-sensitive reagent. As used herein, the term \"quenching reagent\" refers to any compound capable of stopping the enzymatic activity of phospholipase A2 enzyme. Suitable quenching reagents are Ca^2+ chelators such as ethylene glycol bis(oxyethylenenitrilo) tetraacetic acid (EGTA) and the like, or high concentrations of a detergent such as 30 mM Triton X-100. The thiol-sensitive reagent can be any reagent capable of releasing a chromophore such as DTNB or 4,4'-dithiodipyridine (DTP). DTNB is a preferred thiol-sensitive reagent because its chromophore can be detected at […], which is available to most microtiterplate readers."}, "[3]": {"tested_on": "cPLA2 (purified, recombinant human)", "experiment": "Microtiterplate assay for cPLA2 using thioPC substrate", "format": "biochemical", "protocol": "The enzyme activity of CPLA2 was assayed using a ThioPC/Triton X-100 substrate solution. An appropriate volume of ThioPC in chloroform solution was evaporated to dryness under a stream of N2. Triton X-100 (8 mM) in 2× assay buffer (160 mM HEPES, pH 7.4, 300 mM NaCl, 20 mM CaC2, 2 mg/ml BSA) was added to the dried lipid in one-half the desired final volume to give a 2-fold concentrated substrate solution. This solution was bath sonicated 1 min to loosen dried ThioPC from the walls of the vial and then probe sonicated On ice, 20 sec on, 20 sec off for 3 min. The solution was then warmed to 40° C. and warm glycerol equivalent to 30% of the final volume was added. The solution was then brought to the desired final volume with deionized H2 O. The final assay contained 2 mM ThioPC, 4 mM Triton! X-100 and 30% glycerol in 80 mM HEPES, pH 7.4, 150 mM NaCl, 10 mM CaCl2 and 1 mg/ml BSA.\nThe substrate was then aliquotted, in 200 μl increments, into the wells of a 96-well plate and equilibrated for 5 min at 37° C. To initiate the reaction, 500 ng cPLA2 (purified, recombinant human), in a 5 μl volume of 1× assay buffer, was added to the wells, the plate was shaken 20 seconds on high to mix, and then incubated for 60 min at 37° C. […]\nAfter 60 min, 10 μl of a 25 mM DTNB/475 mM EGTA mixture was added to all substrate containing wells to quench the reaction and initiate the color development. […] After adding the DTNB/EGTA, the plate was once again shaken 20 sec on high and allowed to incubate for an additional 3 min to give the DTNB chromophore time to fully develop prior to reading the plate. The absorbance was measured using a dual wavelength option (405 nm -620 nm) to correct for light scattering. […] The average absorbance of the blanks was subtracted from that of the enzyme containing wells to correct for the absorbance due to the substrate, DTNB, and EGTA. The difference in absorbance was used to calculate enzyme activity. […] Specific activity was calculated using ε405 for DTNB of 12,800 M^- cm^-1 (Yu et al supra) and a path length of 0.47 cm for 215 μl final total volume. […]"}}, "data": [{"molecule": "Triton X-100", "values": [{"measurement": "effect of Triton X-100 on stability of cPLA activity", "setting": "cPLA enzyme [1]; Triton X-100 at about 1-5 mM with about 1-3 mM thiosubstrate", "value": "more stable"}]}, {"molecule": "O=C(O)c1cc(SSc2ccc([N+](=O)[O-])c(C(=O)O)c2)ccc1[N+](=O)[O-]", "note": "[DTNB, 5,5'-dithiobis(2-nitrobenzoic acid)]", "values": [{"measurement": "enzymatic activity of cPLA in the presence of thiol-sensitive reagent", "setting": "cPLA enzyme [2]", "value": "enzymatic activity was lost"}]}, {"molecule": "C[S+](C)[O-]", "note": "[DMSO]", "values": [{"measurement": "effect of DMSO on enzyme activity", "setting": "cPLA enzyme [1]; DMSO:enzyme/substrate ratio of about 1:20", "value": "unaffected"}]}, {"molecule": "OCC(O)CO", "note": "[glycerol]", "values": [{"measurement": "effect of glycerol on enzyme activity", "setting": "cPLA enzyme [1]; about 70% glycerol, diluent too viscous", "value": "enzyme activity is increased"}, {"measurement": "effect of glycerol on enzyme activity", "setting": "cPLA enzyme [1]; glycerol as component of substrate diluent", "value": "Enzyme activity increases"}]}, {"molecule": "CCCCC/C=C\\C/C=C\\C/C=C\\C/C=C\\CCCC(=O)S[C@H](COCCCCCCCCCCCCCCCC)COP(=O)([O-])OCC[N+](C)(C)C", "note": "[thioPC, 1-hexadecyl-2-arachidonoylthio-2-deoxy-sn-glycero-3-phosphorylcholine]", "values": [{"measurement": "enzyme activity as a function of time: more linear phase", "setting": "[3]; 2 mM ThioPC, 4 mM Triton X-100, 30% glycerol, pH 7.4, 37° C., FIG. 3", "value": "5 to 60", "unit": "min"}, {"measurement": "enzyme activity as a function of time: burst phase", "setting": "[3]; 2 mM ThioPC, 4 mM Triton X-100, 30% glycerol, pH 7.4, 37° C., FIG. 3, short burst of activity", "value": 5, "unit": "min"}]}, {"molecule": "B1", "values": [{"measurement": "range of enzyme amount with linear activity", "setting": "[3]; FIG. 2, thiosubstrate assay, listed as cytosolic phospholipase A2", "value": "0.05 to 1.0", "unit": "µg"}]}]}
